{
  "source": "patent EP0196574A2",
  "about": "“4,4'-Diaminodiphenyl compounds, process for their preparation and their use” (HOECHST AKTIENGESELLSCHAFT, priority 1985, dated 1986)",
  "data": [
    {"system": "Salmonella typhimurium (Stämme TA 98, TA 100, TA 1535, TA 1537, TA 1538)", "test": "Ames mutagenicity test", "assay_type": "cell-based", "conditions": "strains TA 98, TA 100, TA 1535, TA 1537, TA 1538; ohne und in Gegenwart von S-9-Mix", "excerpt": "(§1) Die folgenden Beispiele sollen die Erfindung näher beschreiben. Der Mutagenitätstest wurde nach Ames mit Salmonella typhimurium (Stämme TA 98, TA 100, TA 1535, TA 1537, TA 1538) ohne und in Gegenwart von S-9-Mix durchgeführt (B.N. Ames et al., Mut. Res. Vol. 31, S. 347 - 364 (1975)).", "values": [
      {"smiles": "CC(C)c1cc(-c2ccc(N)c(C(C)C)c2)ccc1N", "note": "[Beispiel 1, 3,3-Diisopropyl-benzidin-dichlorhydrat]", "Mutagenitätstest nach Ames": "negativ"},
      {"smiles": "CC(C)COc1cc(-c2ccc(N)c(OCC(C)C)c2)ccc1N", "note": "[Beispiel 2, 3,3'-Di-isobutoxybenzidin]", "Mutagenitätstest nach Ames": "negativ"},
      {"smiles": "COCCOc1cc(-c2ccc(N)c(OCCOC)c2)ccc1N", "note": "[Beispiel 3, 3,3'-Di-(2-methoxyethoxy)-benzidin]", "Mutagenitätstest nach Ames": "negativ"}
    ]},
    {"system": "Salmonella typhimurium (Stämme TA 98, TA 100, TA 1535, TA 1537, TA 1538)", "test": "Ames mutagenicity test", "assay_type": "cell-based", "conditions": "strains TA 98, TA 100, TA 1535, TA 1537, TA 1538; ohne und in Gegenwart von S-9-Mix; table of further examples", "excerpt": "as §1", "values": [
      {"smiles": "CCCc1cc(-c2ccc(N)c(CCC)c2)ccc1N", "note": "[Beispiel 4]", "Ames-Test": "negativ"},
      {"smiles": "CCCCc1cc(-c2ccc(N)c(CCCC)c2)ccc1N", "note": "[Beispiel 5]", "Ames-Test": "negativ"},
      {"smiles": "CC(C)Cc1cc(-c2ccc(N)c(CC(C)C)c2)ccc1N", "note": "[Beispiel 6]", "Ames-Test": "negativ"},
      {"smiles": "CCC(C)c1cc(-c2ccc(N)c(C(C)CC)c2)ccc1N", "note": "(stereo not shown) [Beispiel 7]", "Ames-Test": "negativ"},
      {"smiles": "CCCOc1cc(-c2ccc(N)c(OCCC)c2)ccc1N", "note": "[Beispiel 8]", "Ames-Test": "negativ"},
      {"smiles": "CC(C)Oc1cc(-c2ccc(N)c(OC(C)C)c2)ccc1N", "note": "[Beispiel 9]", "Ames-Test": "negativ"},
      {"smiles": "CCC(C)Oc1cc(-c2ccc(N)c(OC(C)CC)c2)ccc1N", "note": "(stereo not shown) [Beispiel 10]", "Ames-Test": "negativ"}
    ]}
  ]
}
